Measured values reported in publication PMC2742306 (Molecular cell, 2009).
No end group written: not given here. βAla = NCCC(=O)O

Assays:
[1] = molecular target: K243D/D320A mutant of DegS (Escherichia coli, UniProt P0AEE3, D320A/K243D); type: biochemical, E. coli
wild-type DegS [2] = molecular target: T1, wild-type DegS (Escherichia coli, UniProt P0AEE3); type: biochemical, E. coli
wild-type DegS [3] = molecular target: T1, wild-type DegS; conditions: 200 μM RseA, ref Sohn et al. (2007); cited from earlier work
D320A DegS [4] = molecular target: T2, D320A DegS (Escherichia coli, UniProt P0AEE3, D320A); type: biochemical, E. coli
[5] = molecular target: K243D/M319A double mutant of DegS (Escherichia coli, UniProt P0AEE3, K243D/M319A); type: biochemical, E. coli; conditions: saturating peptide
K243D mutant of DegS [6] = molecular target: T3, K243D mutant of DegS (Escherichia coli, UniProt P0AEE3, K243D); assay: Global fit to MWC allosteric model, K243D DegS; type: biochemical, E. coli; conditions: K243D, MWC global fit
wild-type DegS [7] = molecular target: T1, wild-type DegS; type: biochemical, E. coli; conditions: wild-type DegS 0.9 μM trimer; 20 μM rhodamine-FP; saturating peptide
K243D mutant of DegS [8] = molecular target: T3, K243D mutant of DegS; type: biochemical, E. coli
D320A DegS [9] = molecular target: T2, D320A DegS; assay: OMP-peptide activation of RseA cleavage by D320A DegS; type: biochemical, E. coli
wild-type DegS [10] = molecular target: T1, wild-type DegS; conditions: saturating peptide, ref Sohn et al. (2007); cited from earlier work
D320A DegS [11] = molecular target: T2, D320A DegS; assay: Global fit to MWC allosteric model, D320A DegS; type: biochemical, E. coli; conditions: D320A, MWC global fit
[12] = molecular target: T4, DegS K243D/M319A double mutant (residues 27–355, N-terminal His6 tag) (E. coli, UniProt P0AEE3 27-355, K243D | M319A); assay: fluorescence polarisation
T4 sequence (looked up): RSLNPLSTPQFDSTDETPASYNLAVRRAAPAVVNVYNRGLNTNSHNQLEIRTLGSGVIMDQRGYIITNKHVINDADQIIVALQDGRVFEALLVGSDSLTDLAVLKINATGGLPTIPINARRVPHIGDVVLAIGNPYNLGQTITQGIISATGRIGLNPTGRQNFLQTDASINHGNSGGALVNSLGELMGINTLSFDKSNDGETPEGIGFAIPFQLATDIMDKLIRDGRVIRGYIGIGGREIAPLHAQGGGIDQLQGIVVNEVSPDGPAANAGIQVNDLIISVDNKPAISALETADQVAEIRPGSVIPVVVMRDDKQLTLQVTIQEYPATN

[13] = molecular target: T5, DegS M319A (residues 27–355, N-terminal His6 tag) (E. coli, UniProt P0AEE3 27-355, M319A); assay: fluorescence polarisation
T5 sequence (looked up): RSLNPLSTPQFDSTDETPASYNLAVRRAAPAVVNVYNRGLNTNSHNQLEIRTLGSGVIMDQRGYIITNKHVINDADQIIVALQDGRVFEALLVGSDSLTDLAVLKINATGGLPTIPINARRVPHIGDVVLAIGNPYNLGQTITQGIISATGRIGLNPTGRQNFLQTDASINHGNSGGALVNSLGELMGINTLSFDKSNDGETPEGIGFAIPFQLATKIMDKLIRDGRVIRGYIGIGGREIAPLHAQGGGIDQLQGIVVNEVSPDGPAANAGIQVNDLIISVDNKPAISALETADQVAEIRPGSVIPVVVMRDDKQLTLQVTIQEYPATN

[14] = molecular target: T6, DegS D320A (residues 27–355, N-terminal His6 tag) (E. coli, UniProt P0AEE3 27-355, D320A); assay: cell-based or functional assay
T6 sequence (looked up): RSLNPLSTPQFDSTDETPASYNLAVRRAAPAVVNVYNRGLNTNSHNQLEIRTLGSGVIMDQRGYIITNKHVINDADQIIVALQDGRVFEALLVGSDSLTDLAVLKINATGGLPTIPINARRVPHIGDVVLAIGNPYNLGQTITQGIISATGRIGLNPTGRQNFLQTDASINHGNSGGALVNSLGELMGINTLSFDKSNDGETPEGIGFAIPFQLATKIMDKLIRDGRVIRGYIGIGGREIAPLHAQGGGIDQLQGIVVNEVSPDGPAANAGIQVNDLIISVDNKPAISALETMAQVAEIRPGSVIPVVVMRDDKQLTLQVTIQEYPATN

[15] = molecular target: T4, DegS K243D/M319A double mutant …; assay: cell-based or functional assay
[16] = molecular target: T7, DegS K243D (residues 27–355, N-terminal His6 tag) (E. coli, UniProt P0AEE3 27-355, K243D); assay: cell-based or functional assay
T7 sequence (looked up): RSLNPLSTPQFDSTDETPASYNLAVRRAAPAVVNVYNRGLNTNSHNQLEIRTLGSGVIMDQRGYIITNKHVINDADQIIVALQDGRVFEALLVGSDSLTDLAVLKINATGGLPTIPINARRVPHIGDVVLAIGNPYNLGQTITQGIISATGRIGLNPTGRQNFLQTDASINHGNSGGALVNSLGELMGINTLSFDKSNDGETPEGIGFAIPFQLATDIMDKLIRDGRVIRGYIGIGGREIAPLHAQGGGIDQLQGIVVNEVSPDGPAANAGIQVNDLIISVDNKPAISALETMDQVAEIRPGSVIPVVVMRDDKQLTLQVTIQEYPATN

[17] = molecular target: T8, DegS K243D/D320A double mutant (residues 27–355, N-terminal His6 tag) (E. coli, UniProt P0AEE3 27-355, K243D | D320A); assay: cell-based or functional assay
T8 sequence (looked up): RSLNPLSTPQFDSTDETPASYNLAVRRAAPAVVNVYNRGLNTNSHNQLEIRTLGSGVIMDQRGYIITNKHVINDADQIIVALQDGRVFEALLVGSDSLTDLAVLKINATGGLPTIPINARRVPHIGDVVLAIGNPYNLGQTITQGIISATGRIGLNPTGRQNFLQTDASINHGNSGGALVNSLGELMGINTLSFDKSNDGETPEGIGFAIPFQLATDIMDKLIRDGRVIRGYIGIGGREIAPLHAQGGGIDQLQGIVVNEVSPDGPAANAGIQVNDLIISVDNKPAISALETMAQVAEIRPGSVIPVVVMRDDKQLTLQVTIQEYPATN

DegS and its mutants = assay: Global fit to MWC allosteric model, RseA substrate binding; type: biochemical, E. coli
[18] = enzyme parameter, peptide-independent
[19] = peptide preference for relaxed state
[20] = same value for all enzymes and peptides

T1 sequence (P0AEE3 27-355): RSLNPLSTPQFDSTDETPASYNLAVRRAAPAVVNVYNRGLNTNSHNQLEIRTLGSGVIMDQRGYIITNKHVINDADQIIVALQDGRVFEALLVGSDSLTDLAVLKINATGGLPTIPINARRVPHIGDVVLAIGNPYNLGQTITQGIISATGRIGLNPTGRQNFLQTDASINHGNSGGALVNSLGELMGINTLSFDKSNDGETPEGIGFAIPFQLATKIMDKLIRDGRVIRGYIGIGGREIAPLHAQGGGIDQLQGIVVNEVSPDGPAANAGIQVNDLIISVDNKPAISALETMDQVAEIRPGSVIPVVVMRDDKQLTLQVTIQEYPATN

## DNRDGNVYYF [DNRDGNVYYF]
[1]; K243D/D320A 0.3 μM trimer, DNRDGNVYYF 30 μM, 23 °C, pH 8.3
  Vmax (RseA cleavage): 2.0 ± 0.3 s^−1enz^−1
[1]; K243D/D320A, saturating OMP peptide
  Hill Constant (RseA substrate): 1.1 ± 0.1
wild-type DegS [2]; MWC global fit, enzyme parameter, peptide-independent
  L0, equilibrium constant T/R of unliganded enzyme: 15000
wild-type DegS [2]; MWC global fit, peptide preference for relaxed state
  KTP/KRP: 6.8
wild-type DegS [2]; MWC global fit, same value for all enzymes and peptides
  kr, rate constant for cleavage of RseA by substrate-bound R-state subunits: 3.3 s⁻¹
wild-type DegS [2]; saturating peptide and saturating RseA substrate, MWC model
  DegS molecules in active conformation: 45%
wild-type DegS [3]
  Hill Constant (peptide activation): 1.8 ± 0.2
D320A DegS [4]; D320A 0.3 μM trimer, saturating peptide (DNRDGNVYYF 30 μM), 23 °C, pH 8.3
  Vmax (RseA cleavage): 2.5 ± 0.3 s^−1enz^−1
D320A DegS [4]; D320A, saturating peptide
  Hill Constant (RseA substrate): 1.1 ± 0.2
[5]
  Hill Constant (RseA substrate): 1.2 ± 0.1
[5]; 23 °C, pH 8.3
  Vmax (RseA cleavage): 1.4 ± 0.1 s^−1enz^−1
K243D mutant of DegS [6]; RseA, not peptide, binding
  KRS, dissociation constant of RseA substrate for R-state subunit: 150 µM
  KTS, dissociation constant of RseA substrate for T-state subunit: 505 µM
K243D mutant of DegS [6]; [18]
  L0, equilibrium constant T/R of unliganded enzyme: 180
K243D mutant of DegS [6]; [19]
  KTP/KRP: 2.0
K243D mutant of DegS [6]; [20]
  kr, rate constant for cleavage of RseA by substrate-bound R-state subunits: 3.3 s⁻¹
wild-type DegS [7]
  rate of rhodamine-FP modification in presence of peptide (order): slower
K243D mutant of DegS [8]; K243D 0.3 μM trimer, saturating peptide (DNRDGNVYYF 30 μM), 23 °C, pH 8.3
  Vmax (RseA cleavage): 1.8 ± 0.2 s^−1enz^−1
K243D mutant of DegS [8]; K243D, saturating peptide
  Hill Constant (RseA substrate): 1.3 ± 0.1
D320A DegS [9]
  EC50: 200 ± 100 nM
wild-type DegS [10]
  Hill Constant (RseA substrate): 1.6 ± 0.2
  Vmax (RseA cleavage): 1.1 ± 0.2 s^−1enz^−1
D320A DegS [11]; RseA, not peptide, binding
  KRS, dissociation constant of RseA substrate for R-state subunit: 150 µM
  KTS, dissociation constant of RseA substrate for T-state subunit: 505 µM
D320A DegS [11]; [18]
  L0, equilibrium constant T/R of unliganded enzyme: 350
D320A DegS [11]; [19]
  KTP/KRP: 3.3
D320A DegS [11]; [20]
  kr, rate constant for cleavage of RseA by substrate-bound R-state subunits: 3.3 s⁻¹

## {fluoresceine-βAla}-KKDNRDGNYYF [OMP peptide fluoresceine-β-alanine-KKDNRDGNYYF]
[12]
  Kd: 180 nM
[13]
  Kd: 140 nM

B1: 35S-labeled variant of the periplasmic domain of E. coli RseA (residues 121–216) with a C-terminal His6 tag (domain or fragment, UniProt P0AFX7 121-216, looked up)
chain: YNGQSETSQQPETPVFNTLPMMGKASPVSLGVPSEATANNGQQQQVQEQRRRINAMLQDYELQRRLHSEQLQFEQAQTQQAAVQVPGIQTLGTQSQ
modifications: 35S-labeled
[14]
  KM of RseA cleavage with saturating YYF peptide: 430 µM
  KM of RseA cleavage with saturating … peptide: 520 µM
[15]
  KM of RseA cleavage with saturating YYF peptide: 490 µM
  KM of RseA cleavage with saturating … peptide: 840 µM
[16]
  KM of RseA cleavage with saturating YYF peptide: 440 µM
  KM of RseA cleavage with saturating … peptide: 580 µM
[17]
  KM of RseA cleavage with saturating … peptide: 630 µM

B2: RseA: 35S-labeled variant of the periplasmic domain of E. coli RseA (residues 121–216) with a C-terminal His6 tag (protein)
chain: YNGQSETSQQPETPVFNTLPMMGKASPVSLGVPSEATANNGQQQQVQEQRRRINAMLQDYELQRRLHSEQLQFEQAQTQQAAVQVPGIQTLGTQSQ
modifications: 35S-labeled; left off: His6, C-terminal, state not stated
DegS and its mutants
  preference for relaxed state in substrate-saturated trimer: approximately 40 fold
